Data on one compound can be found in patent publication US20050265997A1, “Cancer treatment method by inhibiting MAGE gene expression or function” (WISCONSIN ALUMNI RESEARCH FOUNDATION, priority 2004, published 2005).

What all share (assay type): cell-based, human
Assay [1] concerns MAGE mRNA in HMC-1.1 cell. Briefly: Genechip array analysis of MAGE mRNA after STI 571. The settings on record: HMC-1.1 cells, 1 μM STI571 for 4 hours, Means +/- SEM. The source says: (§1) The human mast cell line HMC-1 is dependent on the expression of mutant KIT protein which is constitutively activated, and inhibition of activated KIT with a drug induces apoptosis of HMC-1 cells (Ma et al., 2002, The c-KIT mutation causing human mastocytosis is resistant to STI571 and other KIT kinase inhibitors; kinases with enzymatic site mutations show different inhibitor sensitivity profiles than wild-type kinases and those with regulatory-type mutations. Blood 99:1741-4.). However, the mechanism by which KIT inhibitors cause apoptosis in these cells is unknown. To look for genes whose products could regulate and transduce KIT related signals controlling apoptosis, we used gene chip array analysis to study changes in the mRNA levels of specific genes following induction of apoptosis.
HMC-1.1 cells were divided into triplicate cultures of two groups: a control group treated with PBS, and an experimental group treated with 1 μM STI571, a KIT inhibitor for 4 hours. A quarter of the cells were used for Western blots to confirm the KIT inhibition, and the rest were used for total RNA isolation for genechip analysis. We used Affymetrix Genechip human Genome U133A chips. The arrays were hybridized and scanned and the data were analyzed using dChip analysis software. The statistical significance of differences in mRNA expression levels between STI571 treated and control cells were assessed by t-test based on data from three independent replicates. Values are expressed as Means +/−SEM, and p<0.05 was considered statistically significant.

Assay [2] deals with MAGE-A protein in HMC-1.1 cells. Briefly: Western blot of MAGE-A protein after STI 571. The settings on record: 12 and 24 hours after administration of STI 571. On the technique in general: In western blotting, separated proteins are transferred to a membrane and probed.
The next assay relates to HMC-1.1 cells. Description: Induction of apoptosis by STI 571. The settings on record: following decrease of MAGE mRNA and protein.
From the text: as §1

In the case of `Cc1ccc(NC(=O)c2ccc(CN3CCN(C)CC3)cc2)cc1Nc1nccc(-c2cccnc2)n1` [STI 571], the “mRNA level, melanoma antigen, family A, 1 (NM_004988)” value in assay [1] (three replicates, PBS control 757 ± 29) was determined as 562 ± 33. Also, the “mRNA level, melanoma antigen, family A, 12 (BC003408)” value in assay [1] (PBS control 513 ± 29) stood at 410 ± 26. Also, the “mRNA level, melanoma antigen, family E, 1 (NM_016249)” value in assay [1] (PBS control 514 ± 13) was 405 ± 21. Also, the “mRNA level, melanoma antigen, family A, 5 (AI200443)” value in assay [1] (PBS control 520 ± 28) came out at 414 ± 28. Moreover, the “mRNA level, melanoma antigen, family A, 6 (U10691)” value in assay [1] (PBS control 896 ± 54) is 712 ± 42. Moreover, in assay [1] (PBS control 977 ± 67), the “mRNA level, melanoma antigen, family A, 3 (BC000340)” value is given as 779 ± 32. Besides, in assay [2], the “MAGE-A protein level (Western blot)” value is “down-regulation of MAGE-A protein”. Further, the “apoptosis of the cells” value with HMC-1.1 cells is recorded as “followed by apoptosis of the cells”.
